Patent publication US7547548B2, “Method for producing direct in vitro flowering and viable seed from cotyledon, radicle, and leaf explants, and plants produced therefrom” (University of Toledo, priority 2004, dated 2009)

Columns and labels:
cotyledonary explant = assay: Direct flower bud induction on cotyledon explants on MSB5 medium with growth regulators; format: cell-based, soybean
Protocol: Preferably before germination, the seeds are washed in running tap water with a drop of soap for 15 mins and sterilized with 70% ethyl alcohol for 1 min followed by a 10 minute treatment with 0.1% mercuric chloride and washed three times for 5 min intervals with sterile distilled water. Six seeds are germinated in each petriplate with MSB5 medium After germination on a MSB5 for a period of time, such as 3 days in the dark at 24±2° C., both the cotyledons are split and the radicle and embryo are removed. The isolated cotyledons from the seed are plated on cotyledon-flowering medium (which is another embodiment of the invention and is described in detail below). The cotyledon-flowering medium preferably comprises a substituted phenylurea cytokinin analog, such as TDZ and a cytokinin such as BAP.
If desired, the cotyledon may be transformed at this time with any suitable technique known in the art. Preferably the abaxial side of a cotyledon is placed in contact with a cotyledon-flowering medium. Cultures are incubated at 24±2° C. under a 16/8-hour […] photoperiod provided by cool-white fluorescent lights at a quantum flux density of 30 μmol s^−1m^−2.
Following a passage of time, typically within 3 weeks, flower bud initiation occurs on a cotyledon having been placed on a cotyledon-flowering medium. After about 3 weeks, cotyledons are transferred to MSB5 medium. The flower bud continues to grow on MSB5 medium to develop and produce viable seeds. During this time, cultures are incubated with necessary light-dark photoperiodic conditions to promote growth and to mimic natural growing conditions. Additionally, over time it may be necessary to subculture the explants with fresh MSB5 medium. See example 1 and FIGS, 1a-1d for direct viable-seed producing flower bud initiation on a soybean cotyledon.
Healthy soybean seeds are hand picked and washed with a few drops of soap (Linquinox, Fischer scientific, Pittsburgh, Pa.) for 10 minutes in running tap water. The seeds are then sterilized in 70% ethyl alcohol for 1 min and treated with 0.1% (w/v) mercuric chloride for 10 min. Sterilized seeds are again washed for three times at five minute intervals with sterilized distilled water, and plated six seed on each petri plate containing 20 ml of MSB5 medium. Three-day-old aseptic seedlings are used as the source material for explant preparation. Six isolated cotyledons are plated on each culture plate in such a way that the abaxial side in contact with the medium. MSB5 medium supplemented with different concentrations of TDZ (0.1, 0.5, 1.0, 2.0 and 5.0 mg/L) either alone, or in combination, with BAP (1.0-4.0 mg/L) are tested for flower induction. The media is augmented with 3% (w/v) sucrose and solidified with 0.56% agar (Phytotech Labs). The pH of the medium is adjusted to 5.8 with 0.1M NaOH or 0.1M HCl before autoclaving at 1.4 kg cm^−2 for 20 min at 121° C. The cultures are incubated in light-dark (16-8 hrs) photoperiodic conditions of cool-white-fluorescent light providing a quantum flux density of […] at 25±2° C. Explants with or without multiple flower buds are subcultured regularly at 20 days interval to fresh medium. Within 15 days of culture initiation, the bulging of cotyledons and induction of deep greenish unorganized structures from the proximal end is noticed.

cotyledon = assay: Shoot, fertile flower and viable seed production from in vitro developed shoots from cotyledon; format: cell-based, soybean; conditions: BAP 3.0 mg/L without TDZ
Protocol: In this method, the isolated cotyledons from the germinated seed are plated on a cotyledon-shoot-flowering medium (which is another embodiment of the invention and is described below). A cotyledon-shoot flowering medium preferably comprises a cytokinin or mixtures thereof, such as BAP or combinations of cytokinins and a substituted phenylurea cytokinin analog such as TDZ or mixtures thereof. If desired, the cotyledon may be transformed at this time with any suitable technique known in the art. Preferably the abaxial side of the cotyledon is placed in contact with a cotyledon-shoot-flowering medium. Cultures are incubated at 24×2° C. under a 16/8-hour dark photoperiod provided by cool-white fluorescent lights at a quantum flux density of 30 μmol s^−1m^−2. Following a passage of time, typically, within four to six weeks, shoot initiation occurs on a cotyledon having been placed on a cotyledon-shoot-flowering medium. The shoot continues to grow and develop a flower bud within two to four weeks after shoot initiation. The explant is maintained on a cotyledon-shoot flowering medium for about 15 days and then transferred to MSB5 medium. Healthy soybean seeds are hand picked and washed with a few drops of soap (Linquinox, Fischer scientific, Pittsburgh, Pa.) for 10 minutes in running tap water. […]

[1] = test system: Leaf segments from a petunia; assay: In vitro flowering from leaf explant of petunia; format: cell-based; conditions: MS basal medium, TDZ 0.1, 0.5, 1.0, 2.0 and 5.0 mg/L alone; 4 weeks
Protocol: Leaf segments from a petunia were sterilized using the sterilization procedures described above and placed on MS basal medium supplemented with different concentrations of TDZ (0.1, 0.5, 1.0, 2.0 and 5.0 mg/L) either alone or in combination with BAP (3.0 mg/L) or on a MS basal medium with no hormones. […] A large number of flowers were induced on MS basal medium. FIG. 7 is a photograph showing in vitro flowering in a petunia.

With `c1ccc(CNc2ncnc3nc[nH]c23)cc1` [BAP, 6-benzylamino purine] the “developmental outcome produced by cotyledon explants” value (cotyledonary explant; 3.0 mg/1 BAP) was “only shoots” and the “frequency of shoots, fertile flowers and viable seeds” value (cotyledon) was “high frequency of shoots with low frequency of fertile flowers and viable seeds”.

With `O=C(Nc1ccccc1)Nc1cnns1` [TDZ, 1-phenyl-3-(1,2,3-thiadiazol-5-yl)urea] the “flower induction and shoot induction” value (cotyledonary explant; TDZ 5.0 mg/L) was “neither flower induction nor shoot induction was noticed”, the “flower production on cotyledonary explants” value (cotyledonary explant; TDZ 1.0-2.0 mg/L without BAP) was “produces flowers on cotyledonary explants” and the “number and frequency of flowers induced” value (cotyledonary explant; TDZ below 1.0 mg/L) was “fewer number of flowers and less frequently”. For the same molecule, the “appearance of induced flowers” value (cotyledonary explant; medium containing only 1.0 to 2.0 mg/L TDZ) was “short, vitrified and abnormal” and the flower bud induction [1] was “Multiple flower buds were induced”.
